The test system of experiment [1] is round body form of B. burgdorferi. The experiment in a line: Subculture test of drug-treated round body form. How it is done: For induction of round body form of B. burgdorferi, B. burgdorferi spirochetes (1×10^5 spirochetes/mL) were cultured in BKS-H medium for 6 days without shaking. After the 6-day incubation, amoxicillin at a final concentration of 50 μg/mL was added to the culture for round body form induction. After 72 h induction at 33° C., the round body forms of B. burgdorferi were examined by the microscopy. The round body cells (100 μL) were transferred to 96-well tissue culture microplates for evaluation of the effects of antibiotic treatment.

For experiment [2], the system named is B. burgdorferi (growing, strain B31). The experiment in a line: MIC determination, standard microdilution method. It counts as cell-based, Borrelia burgdorferi. The settings on record: Borreliella burgdorferi; growing B. burgdorferi; read-out: MIC.
[3] abbreviates: 10 μg/mL, 7 days treatment, then subculture.

With `C[C@H]1c2cccc(O)c2C(=O)C2=C(O)[C@]3(O)C(=O)C(C(N)=O)=C(O)[C@@H](N(C)C)[C@@H]3[C@@H](O)[C@@H]21` [Doxycycline], in experiment [1] (setting [3]), the “Spirochetes number After 10 day subculture” value is 1 × 10^6 and the “Spirochetes number After 20 day subculture” value was “about 5×10^6”. Besides, in experiment [1] (10 μg/mL, 7 days treatment, then subculture, listed as Dox), the “Spirochetes number After 20 day subculture” value is reported as 5 × 10^6. Moreover, in experiment [1] (Borreliella burgdorferi, 168 h, read-out: Residual viable cells), the viability at 10 µg/mL stood at 44%. The minimum inhibitory concentration (MIC) in experiment [2] was at most 0.25 µg/mL.

Source of the values: patent US20170058314A1, “NOVEL METHODOLOGY FOR IDENTIFYING ANTI-PERSISTER ACTIVITY AND ANTIMICROBIAL SUSCEPTIBILITY FOR BORRELIA BURGDORFERI AND OTHER BACTERIA” (priority 2014, published 2017).
